# Measured values taken from publication PMC3256188, “Novel Nonphosphorylated Peptides with Conserved Sequences Selectively Bind to Grb7 SH2 Domain with Affinity Comparable to Its Phosphorylated Ligand” (PLoS ONE, 2012).
# “Also recorded” adds a separate entry of the source.
# Legend:
# [1] = test system: SK-BR-3 breast cancer cells; assay: MTS cell proliferation assay; format: cell-based; conditions: double-factor variance analysis, n = 10, p<0.001, Figure 4B
# Method: For the cell proliferation assay, the anti-Grb7 antibody (N-20, Santa Cruz Biotechnology, USA) and the anti-Flag antibody (M20008M, Abmart, China) were used for the western blot, and MTS (Promega, USA) was used for the analysis of cell proliferation.
# The MTS cell proliferation assay was performed to analyze the proliferation of SK-BR-3 breast cancer cells (Cell culture center of PUMC, China) according to the manufacturer's instructions (Promega, USA). SK-BR-3 cells at 70%–80% confluency were transiently transfected respectively with plasmids of 41-mRLUC-3×Flag or mRLUC-3×Flag and Mega Tran 1.0 (OriGene, USA). Beginning from 12 h after transfection, 400 µg/mL G418 (11811-023, Invitrogen, USA) was used to select for the transfected cells. The u-bottom 96-well microtiter plates (Corning, USA) were seeded with approximately 7.50×10^3 cells per well at 18 h after transfection. […] The absorbance at 492 nm of transfected cells and control DMEM medium was measured separately at 18 h, 24 h, 36 h, 48 h and 60 h after transfection on Synergy4 Multi-Mode Microplates Readers (BioTek, USA). The absorbance was adjusted by differences in the absorbance between cell culture medium and control medium without seeded cells. The data were analyzed by double-factor variance analysis using SPSS 17.0.
# [2] = molecular target: T1, GFP-Grb7 SH2 domain and 41-mRLUC-3×Flag complex (Homo sapiens, UniProt Q14451); assay: Competition immunoprecipitation, GFP-Grb7 SH2 domain and 41-mRLUC-3×Flag complex; format: binding
# T1 construct: expressed in transfected cells; host or cells: HEK293T
# Description: To see whether the nonphosphorylated peptide could effectively compete with phosphorylated ligand for binding to the Grb7 SH2 domain, the phosphorylated ligand pY (1180) (DEEYEpY(1180)MNRRR), which was previously shown to interact with the Grb7 SH2 domain [6], and the nonphosphorylated 41-A ligand ([…]), which contains the first twenty-two amino acid-motif close to the N-terminus of peptide 41, were examine for their abilities to interfere with the GFP-Grb7 SH2 domain and 41-mRLUC-3×Flag complex using immunoprecipitation with anti-GFP antibody.
# The phosphorylated ligand pY (1180) (DEEYEpY(1180)MNRRR) from the ErbB3 and the nonphosphorylated peptide 41-A ([…] RV) from nonphosphorylated peptide 41 were synthesized by the China Peptides Co., Ltd. The HPLC purification analysis and MS quality analysis reports were obtained.
# HEK293T cells were washed 5 times with ice-cold PBS buffer and scraped off the plates into cell lysis buffer (1% Nonidet P-40, 0.02 M TRIS (pH 7.5), 0.15 M sodium chloride, 0.001 M EDTA, 0.5% sodium deoxycholate, 0.1% SDS and 0.001 M PMSF). Lysates were incubated on ice for 5 minutes, vortexed 2 times for 30 seconds each and centrifuged at 12,000 rpm for 15 minutes at 4°C. After centrifuging twice, the supernatant was incubated with anti-Flag antibody (1∶100, M20008M, Abmart, China) for 6–8 h at 4°C. Protein G agarose (40 µL) was added into 1 mL of the above mixture and coupled to the anti-Flag antibody for 3 h at 4°C. The immunoprecipitates were washed 2–3 times with PBS buffer (PH 7.4), and the sediments were diluted with 5×SDS electrophoresis buffer and heated at 97°C for 10 minutes. The proteins were separated by SDS-PAGE and transferred to PVDF membranes (IPVH00010, Millipore, USA). The membranes were incubated with anti-GFP antibody (1∶2000, P30010, Abmart, China) and goat anti-rabbit secondary antibody (1∶4000, M21002, Abmart, China) to identify target proteins. For the competition analyses, the immunoprecipitation complexes were mixed with anti-Flag antibody and different concentrations of the synthesized phosphorylated ligands or the nonphosphorylated ligands. The proteins were separated by SDS-PAGE, and the SH2 domain of Grb7 protein was analyzed using anti-GFP antibody. Western blot analysis was carried out using the Image J [37], the IC50 values were calculated by regression analyses using SPSS 17.0.
# [3] = test system: EYFP-tagged Grb7 SH2 domain; assay: Bioluminescence Resonance Energy Transfer (BRET) in HEK293T cells; format: cell-based; conditions: 36 h after transfection, EYFP-Grb7 SH2 + mRLUC-tagged peptide, coelenterazine 5.9 µM, eighteen group ratios
# Description: For the BRET assay, the EYFP fragment was generated by PCR amplification. The ErbB3-mRLUC plasmid was constructed by the Beijing Sino Biological Inc. The SH2 domain of Grb7 was fused to the EYFP fragment, and the nonphosphorylated peptides 10 and 41 were fused to the mRLUC fragment. The Grb7 SH2 domain sequence was inserted at the C-terminus of the EYFP tag.
# (§1) HEK293T cells at 70%–80% confluency were given fresh DMEM (high glucose) culture medium and transfected with plasmids using the calcium phosphate method. Samples were collected at 36 h after transfection.
# In BRET, the Renilla luciferase (mRLUC) is fused to the candidate protein, and the green fluorescent protein mutant (EYFP) is fused to the target protein. Interactions between the two fused proteins bring the luciferase and the green fluorescent protein into close proximity, which promotes resonance energy transfer from mRLUC to EYFP [38]. Then EYFP is […] at 530 nm, and the emission is used to determine the binding between the two interacting proteins. In this study, HEK293T cells were collected at 36 h after transfection, 100 µL of mixed cell suspension was added to the u-bottom 96-well microtiter plates (Corning, USA) before measurement. The measurement of bioluminescence, with rasters of 460/40 nm and 518/20 nm, was performed on Synergy4 Multi-Mode Microplates Readers (BioTek, USA). The BRET reaction was initiated by 5.9 µM coelenterazine (Promega, USA). Data were analyzed by one-factor analysis of variance using SPSS 17.0.
# [4] = test system: Grb7 SH2 domain; assay: Co-immunoprecipitation from transfected HEK293T cells; format: binding; conditions: HEK293T co-transfected with peptide-mRLUC-3×Flag and EGFP-Grb7 SH2, 36 h; anti-Flag IP, anti-GFP blot
# Description: In the co-immunoprecipitation assay, the mRLUC fragment was generated by PCR amplification. The inserted sequence of the Grb7 SH2 domain was as follows: N- […]-C. This sequence was inserted at the C terminus of the EGFP tag. The sequence of peptide 10 was as follows: N-[…]-C. The sequence of peptide 41 was as follows: N-[…]-C. The sequence of peptide 10CM was as follows: N-[…]-C. The nonphosphorylated peptide and the mRLUC fragment were inserted at the N-terminus of the Flag tag. The mRLUC fragment was fused with the nonphosphorylated peptide so that they could be easily identifiable. The empty vector containing the mRLUC fragment was used as the negative control.
# as §1
# HEK293T cells were washed 5 times with ice-cold PBS buffer and scraped off the plates into cell lysis buffer (1% Nonidet P-40, 0.02 M TRIS (pH 7.5), 0.15 M sodium chloride, 0.001 M EDTA, 0.5% sodium deoxycholate, 0.1% SDS and 0.001 M PMSF). […] The proteins were separated by SDS-PAGE, and the SH2 domain of Grb7 protein was analyzed using anti-GFP antibody. Western blot analysis was carried out using the Image J [37], the IC50 values were calculated by regression analyses using SPSS 17.0.
# [5] = molecular target: Grb7 SH2 domain; parameters: method as in earlier work; conditions: binding to Grb7 SH2 domain; calorimetric (title of ref 27); read-out: dissociation constant (Kd); cited from earlier work
# Description: Many drugs are designed to target the SH2 domain of Grb7. […] This peptide also serves as a model for chemical drug de ...
# T1 sequence (Q14451 425-532, one chain of several): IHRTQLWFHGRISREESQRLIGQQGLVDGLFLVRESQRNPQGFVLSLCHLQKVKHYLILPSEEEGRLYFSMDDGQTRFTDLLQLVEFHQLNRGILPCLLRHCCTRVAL
"binding to the Grb7 SH2 domain in the absence of competitor ([2]; in the absence of peptide pY (1180) and peptide 41-A, Figure 3A)",interference with binding of the Grb7 SH2 domain to peptide 41 ([2]; 0.0072 mM),interference with binding of the Grb7 SH2 domain to peptide 41 ([2]; 0.036 mM),interference with binding of the Grb7 SH2 domain to peptide 41 ([2]; 0.18 mM),Substance,adjusted absorbance between transfected cell groups and between time points [1],BRET luminescence ratio of 530/480 nm [3],pull-down of the Grb7 SH2 domain (co-immunoprecipitation) [4],Kd [5] [nM],"disruptive effect on the Grb7 SH2 domain/peptide 41 interaction ([2]; Figure 3A, overall, concentration not given)","binding affinity to the Grb7 SH2 domain, comparison of 41-A and pY (1180) ([2]; in vitro competition, in words)"
could bind to the Grb7 SH2 domain,,,,"N-VGTWTTRGPWCPCVAVGIPTQPTTSSEPSPPSNPPWDPGRVLLGRIVWPGLLALGIPTHHQNDTYNSPHAHPNRDP-C [peptide 41, nonphosphorylated peptide with two twenty-two residue motifs, 41-A and 41-B]",Statistically significant differences existed in both of groups,significantly stronger,pulled down the Grb7 SH2 domain; also recorded: co-immunoprecipitated,,,
,did not significantly interfere,did not significantly interfere,nearly abolished,"DEEYEpY(1180)MNRRR [pY (1180), phosphorylated ligand pY (1180) (DEEYEpY(1180)MNRRR) from the ErbB3, reference compound]",,,,~1150,abolished the association between the Grb7 SH2 domain and nonphosphorylated peptide 41,at least comparable binding affinities to the Grb7 SH2 domain
